PubChem BioAssay (NCI)
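1) Cells in 96-well plates. 2) Compound, 48 h, 5 concentrations. 3) Linear interpolation between surrounding doses. 4) Unreached endpoint = highest concentration. Abbreviation: GI50, concentration required for 50% inhibition of growth. TGI is the concentration that stops growth completely.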

Columns and labels:
Test in all cases: growth of human tumour cells (NCI), 48 h
BT-549 breast = test system: BT-549 breast
HCT-15 colon = test system: HCT-15 colon
HL-60(TB) leukemia = test system: HL-60(TB) leukemia
OVCAR-8 ovarian = test system: OVCAR-8 ovarian
SF-295 CNS = test system: SF-295 CNS
SF-539 CNS = test system: SF-539 CNS
SNB-75 CNS = test system: SNB-75 CNS
TK-10 renal = test system: TK-10 renal
UACC-257 melanoma = test system: UACC-257 melanoma
UO-31 renal = test system: UO-31 renal

Row | SMILES | TGI (BT-549 breast) [µM] | TGI (HCT-15 colon) [µM] | TGI (HL-60(TB) leukemia) [µM] | TGI (OVCAR-8 ovarian) [µM] | TGI (SF-295 CNS) [µM] | TGI (SF-539 CNS) [µM] | TGI (SNB-75 CNS) [µM] | TGI (TK-10 renal) [µM] | TGI (UACC-257 melanoma) [µM] | GI50 (BT-549 breast) [µM] | GI50 (HCT-15 colon) [µM] | GI50 (HL-60(TB) leukemia) [µM] | GI50 (OVCAR-8 ovarian) [µM] | GI50 (SF-295 CNS) [µM] | GI50 (SF-539 CNS) [µM] | GI50 (SNB-75 CNS) [µM] | GI50 (TK-10 renal) [µM] | GI50 (UACC-257 melanoma) [µM] | GI50 (UO-31 renal) [µM] | TGI (UO-31 renal) [µM]
1 | C=C1C(=O)OC2CC(C)C(/C=C/C(C)=O)=CCC12 (stereo not given) | > 100 | > 100 | > 100 | > 100 | > 100 | > 100 | > 100 | > 100 | > 100 | – | – | – | – | – | – | – | – | – | – | –
2 | Cc1cc(NC(=O)NCc2ccc(N3C(N)=NC(N)=NC3(C)C)cc2)ccc1S(=O)(=O)F | > 67.6 | > 100 | > 57.5 | > 100 | > 100 | > 69.2 | > 100 | > 100 | > 100 | 4.97 | 11.2 | 0.716 | 6.76 | 1.57 | 2.38 | > 32.3 | 5.5 | 33.6 | > 100 | > 100
3 | O=c1ccc(N=Nc2ccccc2)ccc1O | 56.6 | 19.8 | 51.2 | 43.9 | 20.9 | 37.2 | 57.8 | 60.2 | 51.7 | – | – | – | – | – | – | – | – | – | – | 70.9
4 | O=c1cc(-c2ccccc2)oc2ccc(Cl)cc12 | > 100 | > 100 | > 46.4 | > 100 | 99.1 | > 97.4 | > 85.7 | 92.7 | > 74.6 | – | – | – | – | – | – | – | – | – | – | > 88.8
5 | CC(=O)c1cc2c(N)c(C(=O)Nc3cccc4ccccc34)sc2nc1C | > 50 | > 50 | 4.35 | > 50 | 3.59 | 3.99 | 35.5 | > 50 | > 50 | 4.03 | 1.71 | 1.36 | 2.14 | 0.922 | 1.16 | 1.98 | 3.77 | 18 | 4.27 | > 50
6 | COc1cccc(/C=C2\N=C(c3ccccc3)OC2=O)c1 | > 100 | > 100 | 26 | > 100 | > 100 | > 100 | 77.1 | > 100 | > 100 | – | – | – | – | – | – | – | – | – | – | > 100
7 | CCn1c(-c2nonc2N)nc2ccccc21 | > 25 | > 25 | > 25 | > 25 | > 25 | > 25 | > 25 | > 25 | > 25 | > 25 | > 25 | > 25 | > 25 | > 25 | > 25 | > 25 | 7.32 | > 25 | > 25 | > 25
8 | Clc1ccc2c(NCCNc3nc(N4CCOCC4)nc4ccccc34)ccnc2c1 | 4.69 | 8.47 | 3.12 | 5.24 | 3.24 | 3.34 | 2.85 | 3.39 | 4.33 | 2.07 | 2.49 | 1.09 | 2.18 | 1.75 | 1.73 | 1.44 | 1.83 | 2.07 | 1.34 | 2.68
9 | CC1(C)N=C(N)N=C(N)N1c1ccc(CCCC(=O)Nc2ccc(S(=O)(=O)F)cc2)cc1 | > 100 | > 100 | > 100 | > 100 | > 100 | > 100 | > 100 | > 100 | > 100 | 22.8 | 39.3 | 3.47 | 12.9 | 38.6 | 2.62 | 10.2 | 7.63 | 24.8 | > 100 | > 100
10 | COc1cc2ncn(-c3cc(OCc4ccccc4C(F)(F)F)c(C(N)=O)s3)c2cc1OC | > 19.5 | > 25 | > 25 | > 19.9 | 6.9 | > 11.6 | 9.31 | 12.8 | > 25 | 1.64 | 0.211 | 0.0361 | 0.168 | 0.131 | 0.139 | 2.7 | 3.29 | > 5.96 | > 18.4 | > 25
11 | COc1cc2c(c(OC)c1OC)-c1cc(I)c(O)cc1[C@@H](NC(C)=O)CC2 | 2.95 | > 100 | 0.069 | > 100 | > 100 | 0.178 | > 92.5 | > 100 | > 100 | 0.134 | 0.118 | 0.0254 | 0.187 | 0.037 | 0.0314 | 0.0332 | > 44.6 | 49.1 | 0.556 | –
12 | CCN(CC)c1ccc(/C=N/NC(=O)Cc2ccc(Nc3ccnc(C(F)(F)F)c3)cc2)c(O)c1 | > 29.2 | > 100 | 1.62 | > 100 | > 60 | 7.02 | > 61.1 | > 100 | > 29.2 | 0.965 | 0.373 | 0.301 | 0.757 | 0.713 | 0.652 | 2.12 | 0.461 | 1.82 | 0.482 | > 100
13 | O=c1c(I)c[nH]cc1I | > 100 | > 100 | > 100 | > 100 | > 100 | > 100 | > 100 | > 100 | > 100 | > 100 | > 100 | > 100 | > 100 | > 100 | > 100 | > 100 | > 100 | > 100 | > 100 | > 100
14 | C=CCC(N[C@@H](CO)c1ccccc1)c1ccc2ccccc2n1 (stereo not given in full) | > 100 | > 100 | 51.5 | > 100 | > 100 | > 100 | > 100 | > 100 | > 100 | > 100 | > 100 | 12.3 | > 100 | > 100 | > 100 | 51.2 | > 100 | 32.4 | 88.2 | > 100
15 | CC[C@H](C)[C@H](NC(=O)[C@H]1CCCCN1C)C(=O)N(C)[C@H](CCc1nc(C(=O)N[C@@H](Cc2ccccc2)C[C@H](C)C(=O)O)cs1)C(C)C | 6.94 | > 25 | 0.174 | > 25 | – | 1.14 | > 25 | > 25 | > 25 | 0.126 | 1.34 | 0.0553 | 0.61 | 0.143 | 0.0888 | 0.0621 | > 14.9 | > 25 | > 14.1 | > 25
16 | Cn1c(=O)c(-c2ccccc2Cl)cc2cnc(NC3CCOCC3)nc21 | > 25 | > 25 | > 25 | > 25 | > 25 | > 25 | > 25 | > 22.9 | > 25 | > 25 | 9.82 | 10.5 | 10.2 | 12.1 | 11.1 | 3.82 | 6.19 | 14.8 | 6.8 | > 22.4
17 | COc1ccc2nc3ccccc3c(NCCNCCO)c2c1 | 4.29 | 22.2 | 1.68 | 8.88 | 2.62 | 2.99 | 2.13 | 9.96 | 2.34 | 1.01 | 2.04 | 0.572 | 0.528 | 0.484 | 0.801 | 0.854 | 0.716 | 0.655 | 0.328 | 1.68
18 | CCCCNc1ncnc2c1cnn2-c1ccccc1 | > 69 | > 50.1 | 53 | > 88.1 | 20.3 | > 100 | 39.9 | > 57.9 | > 83.8 | 6.71 | 0.947 | 2.35 | 4.62 | 1.88 | 4.05 | 2.11 | 5.35 | 11 | 7.44 | 71.2
19 | CC(C)(Oc1ccc(-c2cccc3ccccc23)cc1)C(=O)O | > 100 | > 100 | 30.1 | > 100 | > 100 | > 100 | > 100 | > 100 | > 100 | – | – | – | – | – | – | – | – | – | – | > 100
20 | [O]=[Sn]([CH]1CCCCC1)[CH]1CCCCC1 | 0.588 | 0.691 | 1.55 | 1.17 | 1.35 | 0.71 | 0.562 | 1.14 | 0.384 | 0.229 | 0.197 | 0.248 | 0.298 | 0.319 | 0.24 | 0.158 | 0.267 | 0.133 | 0.293 | 1.08
21 | COC1C(OC(=O)c2ccc(C)[nH]2)C(O)C(Oc2ccc3c(O)c(NC(=O)c4ccc(O)c(CC=C(C)C)c4)c(=O)oc3c2Cl)OC1(C)C (stereo not given) | 42.5 | 38.1 | > 100 | 52 | 43.4 | 38.1 | 72.9 | > 100 | > 100 | – | – | – | – | – | – | – | – | – | – | –
22 | Nc1ncn([C@H]2CC(O)[C@@H](CO)S2)c(=O)n1 (stereo not given in full) | > 100 | > 100 | > 100 | > 100 | > 100 | > 100 | > 100 | > 100 | – | 8.27 | 1.71 | 5.27 | 0.42 | 35.5 | 16.7 | 53.9 | 36.3 | – | 2.93 | > 100
23 | CN1CCCCC1CCN1c2ccccc2Sc2ccc(Br)cc21 (stereo not given) | 17.7 | 10.2 | 4.65 | 4.47 | 4.94 | 4.01 | 5.56 | 5.14 | 3.55 | 4.17 | 3.17 | 2.06 | 2.11 | 2.13 | 2.02 | 1.65 | 1.99 | 1.91 | 2.68 | 10.8
24 | CC1(C)CC(O)CC(C)(C)N1O | > 100 | > 100 | > 100 | > 100 | > 100 | > 100 | > 100 | > 100 | > 100 | – | – | > 100 | – | – | – | – | – | – | – | > 100
25 | CCN(CC)CCOC(COc1cc(C)cc(C)c1)COc1cc(C)cc(C)c1 | 20.7 | 12.4 | 4.48 | 22.2 | – | 3.3 | 20.8 | 14.5 | 17.2 | 6.12 | 3.01 | 1.94 | 7.23 | – | 1.62 | 5.75 | 3.45 | 4.89 | 2.19 | 13
26 | CCc1ccc2c(c1)C(=O)c1c-2n(CCCN)c(=O)c2cc(OC)c(OC)cc12 | 3.17 | 3.01 | 3.47 | – | 3.08 | 3.07 | 4.3 | 3.28 | 43.6 | 1.65 | 1.59 | 1.37 | – | 1.59 | 1.64 | 1.96 | 1.74 | 19.5 | 1.74 | 3.32
27 | [Br][Pb]([c]1ccccc1)([c]1ccccc1)[c]1ccccc1 | 0.541 | 0.329 | 0.498 | 0.384 | – | 0.596 | 0.389 | 0.36 | 0.43 | 0.198 | 0.148 | 0.19 | 0.186 | – | 0.252 | 0.0993 | 0.175 | 0.193 | 0.141 | 0.279
28 | O=C1C(Cl)=C(Nc2ccc(S(=O)(=O)c3ccc(NC4=C(Cl)C(=O)c5ccccc5C4=O)cc3)cc2)C(=O)c2ccccc21 | 3.24 | – | 8.62 | – | 11.8 | 3.71 | 2.33 | 3.04 | 3.48 | 1.65 | – | 3.24 | – | 3.27 | 1.91 | 1.04 | 1.67 | 1.92 | 1.38 | 2.85
